Converted amounts (≈) assume the structure as drawn. Bridge positions count the residues as written; N and C are the ends. Square brackets hold non-standard residues; d marks the D form. Peptide text beside a SMILES is read from it. * marks the point of attachment. X1 = CC[C@H](C)CCCCC(=O)*; Dab = NCC[C@H](N)C(=O)O
Assays:
[1] = test system: ΔlpxL deletion mutant (Keio deletion library); experiment: MIC and IC50 on Keio collection strains; format: cell-based, Escherichia coli
[2] = test system: S. aureus ATCC 29213; experiment: Selection of resistant mutants by serial passage, MIC per passage; format: cell-based, Staphylococcus aureus
[3] = ref Michod et al., 2009; cited from earlier work
[4] = test system: E. coli MG1655; experiment: MIC and IC50 measurement; format: cell-based, Escherichia coli; conditions: for IC50 / MIC: OD590 after 16 hours
[5] = test system: E. coli ATCC 25922; experiment: MIC and IC50 measurement; format: cell-based, Escherichia coli; conditions: for IC50 / MIC: OD590 after 16 hours
[6] = test system: ΔrfaY deletion mutant (Keio deletion library); experiment: MIC and IC50 on Keio collection strains; format: cell-based, Escherichia coli
[7] = test system: wild-type strain (Keio deletion library); experiment: MIC and IC50 on Keio collection strains; format: cell-based, Escherichia coli
[8] = test system: P. aeruginosa PA14; experiment: MIC and IC50 measurement; format: cell-based, Pseudomonas aeruginosa; conditions: for IC50 / MIC: OD590 after 16 hours
[9] = test system: E. coli MG1655; experiment: Growth curves with single AMPs and combinations of AMPs; format: cell-based, Escherichia coli; conditions: single compound at the "full" concentration, 6 hours
[10] = BM2 Mg^high (BM2 with 2 mM MgSO4)
[11] = BM2 Mg^low (BM2 with 20 μM MgSO4)
[12] = LB Mg^high (LB with 2 mM MgSO4)
[13] = LB containing EDTA at concentrations that do not affect bacterial proliferation

With CSCC[C@@H](NC(=O)[C@@H](Cc1c[nH]c2ccccc12)NC(=O)[C@H](NC(=O)[C@H](NC(=O)[C@@H](CC(N)=O)NC(=O)[C@@H](CC(C)C)NC(=O)[C@@H](CCCNC(=N)N)NC(=O)[C@H](NC(=O)[C@H](N)CC(=O)O)[C@H](C)O)[C@H](C)O)C(C)C)C(=O)N[C@H](Cc1c[nH]c2ccccc12)C(=O)NCC(=O)NCC(=O)N[C@H](CCCNC(=N)N)C(=O)N[C@H](CCCNC(=N)N)C(=O)N[C@H](CCCNC(=N)N)C(=O)N[C@H](CCC(N)=O)C(=O)N[C@H](CCCNC(=N)N)C(=O)N[C@H](CCCNC(=N)N)C(=O)N[C@H](CCCCN)C(=O)N[C@H](CCCCN)C(=O)N[C@H](CCCNC(=N)N)C(=O)NCC(=O)O [TAT-RasGAP317-326] (H-[dD][dT][dR][dL][dN][dT][dV][dW][dM][dW]GG[dR][dR][dR][dQ][dR][dR][dK][dK][dR]G-OH) the IC50 ([1]; Strain 1) was 2 µM, the MIC ([1]; Strain 1) was 2.5 µM (≈ 7.04 µg/mL) and the IC50 ([1]; Strain 2) was 2.2 µM. For the same molecule, the MIC ([1]; Strain 2) was 2.5 µM (≈ 7.04 µg/mL), the MIC after selection ([2]; S. aureus passaged in presence of peptide, rapidly increased) was 256 µM and the “MIC of the parental strain” value ([2]; parental strain of S. aureus) was 64 to 128 µM. The biodistribution and clearance [3] was “poor biodistribution and rapid clearance”, the IC50 [4, 10] was 2 µM and the MIC [4, 10] was 4 µM. It also gave an IC50 [4, 11] of 0.3 µM, an MIC [4, 11] of 0.5 µM and an IC50 [4, 12] of 16.3 µM. The MIC [4, 12] was 32 µM, the MIC ([4]; LB) was 8 µM and the IC50 ([4]; LB, GraphPad Prism 8) was 3 µM. It also gave an IC50 [5, 12] of 52 µM, an MIC [5, 12] of 128 µM and an IC50 ([5]; LB) of 5.2 µM. The MIC ([5]; LB) was 8 µM, the IC50 ([6]; Strain 1) was 7.1 µM and the MIC ([6]; Strain 1) was 10 µM (≈ 28.1 µg/mL). It also gave an IC50 ([6]; Strain 2) of 7.8 µM, an MIC ([6]; Strain 2) of 10 µM (≈ 28.1 µg/mL) and an IC50 ([7]; Strain 1) of 4.1 µM. It also gave an MIC ([7]; Strain 1) of 7.5 µM (≈ 21.1 µg/mL), an IC50 ([7]; Strain 2) of 4.8 µM and an MIC ([7]; Strain 2) of 7.5 µM (≈ 21.1 µg/mL). It also gave an IC50 [8, 10] of 10.1 µM, an MIC [8, 10] of 32 µM and an IC50 [8, 11] of 1.7 µM. For the same molecule, the MIC [8, 11] was 4 µM, the IC50 [8, 12] was 20.8 µM and the MIC [8, 12] was 64 µM. It also gave an IC50 ([8]; LB) of 7.2 µM and an MIC ([8]; LB) of 32 µM.

For CC[C@H](C)CCCCC(=O)N[C@@H](CCN)C(=O)N[C@H](C(=O)N[C@@H](CCN)C(=O)N[C@H]1CCNC(=O)[C@H]([C@@H](C)O)NC(=O)[C@H](CCN)NC(=O)[C@H](CCN)NC(=O)[C@H](CC(C)C)NC(=O)[C@@H](Cc2ccccc2)NC(=O)[C@H](CCN)NC1=O)[C@@H](C)O [Polymyxin B, polymyxin B] (X1-[Dab]T[Dab][Dab][Dab][dF]L[Dab][Dab]T; lactam 4-C (inferred); N-terminus assumed), the IC50 [4, 10] was 0.8 µg/mL, the MIC [4, 10] was 2 µg/mL and the IC50 [4, 11] was 1.0 µg/mL. The MIC [4, 11] was 2 µg/mL, the “impact of low magnesium in BM2 medium on MIC” value ([4]; BM2 Mg^low vs BM2 Mg^high) was “no impact” and the MIC [4, 12] was 2 µg/mL. For the same molecule, the “effect of EDTA on MIC” value [4, 13] was “less affected”, the “effect of soluble LPS on efficacy (MIC)” value ([4]; LB containing purified E. coli LPS, averages of two independent experiments) was “greatly diminishes the efficacy” and the MIC ([4]; LB) was 1 µg/mL. For the same molecule, the IC50 ([4]; LB, GraphPad Prism 8) was 0.6 µg/mL, the IC50 [5, 12] was 2.7 µg/mL and the MIC [5, 12] was 4 µg/mL. For the same molecule, the “effect of EDTA on MIC” value [5, 13] was “less affected”, the IC50 ([5]; LB) was 1.8 µg/mL and the MIC ([5]; LB) was 2 µg/mL. The growth inhibition [9] was ~ 35%, the IC50 [8, 10] was 0.5 µg/mL and the MIC [8, 10] was 1 µg/mL. The MIC [8, 11] was 4 µg/mL, the “increase of MIC by low magnesium in BM2 medium” value ([8]; BM2 Mg^low vs BM2 Mg^high) was 4 fold and the MIC [8, 12] was 2 µg/mL. The IC50 ([8]; LB) was 2.1 µg/mL and the MIC ([8]; LB) was 4 µg/mL.

With melittin the growth inhibition [9] was ~ 20%.

— article doi:10.1101/2020.10.02.321802v3 (bioRxiv, 2020)
